Key:
XIAP = assay: Western blot of treated MOLM-14 cells; assay type: cell-based; settings: MOLM-14, 24 hours
Description: (§1) FIGS. 7A-7I. CAV treatment alters expression of genes involved in cell survival relevant to AraC and Venetoclax resistance mechanism. MOLM-14 cells were treated with the listed conditions for 24 hours and protein harvested. Western blots were performed and quantitated via densitometry. Representative blots are shown in FIG. 7A and quantification in FIGS. 7B-7I. *: significant to Vehicle.
(§2) Western blotting: Whole cell lysates were prepared by dissolving cells in FOCUS™ Extraction Buffer III (G-Biosciences, St. Louis, Mo., United States of America; Catalog No. 786-222) containing protease inhibitors (Thermo Fisher Scientific Catalog No. A32955) for 10-15 minutes on ice with occasional shaking. After centrifugation for 15 minutes at 13-14000×g at 10° C. supernatants were mixed with one-third of a volume of NUPAGE™ LDS 4× Sample Buffer (Thermo Fisher Scientific) containing 5% 2-mercaptoethanol. Protein samples were prepared by heating at 37° C. for 10 min after the addition of denaturing sample buffer. Proteins were separated using SDS-PAGE on a 4-12% gel (Thermo Fisher Scientific) and transferred to Immobilon membrane (Bio-Rad). […]

Survivin = assay: Western blot of treated MOLM-14 cells; assay type: cell-based; settings: MOLM-14, 24 hours, independently
Description: as §1, §2

ceramide levels = assay: Lipidomics (LC/MS) of ceramide levels in treated cells; assay type: cell-based; settings: 24 hrs
Excerpt: Lipidomics: Lipids were extracted from cell lysates and analyzed on an Acquity I-Class/Xevo TQ-S Micro IVD System (Waters Corporation, Milford, Mass., United States of America) as described previously (Pearson et al. (2020) Ceramide Analogue SACLAC Modulates Sphingolipid Levels and MCL-1 Splicing to Induce Apoptosis in Acute Myeloid Leukemia. Mol Cancer Res 18(3):352-363). Mass spectrometry peaks were compared to internal standards, and all data are represented as picomoles of lipid per milligram of protein.
To determine potential metabolic mechanism underlying the efficacy of combinatorial CNL/AraC/Venetoclax (CAV) treatment, lipids were harvested to measure the effect of Venetoclax and AraC upon CNL metabolism by LC/MS. Cells were treated individually or in combination with CNL, Ara-C, and/or Venetoclax for 24 hrs. […] This lead to an increase in the C16/C24 ratio, which might support a pro-mitogenic response (FIG. 6H).

C1498 AML cells = assay: Syngeneic C1498-luc AML model in C57BL/6J mice; assay type: in vivo, mouse
Description: FIG. 8C: Survival of C1498-bearing C57BL/6J mice were treated with either Control (Lip-Ghost), CNL (31.2 mg/kg), Cytarabine (75 mg/kg) or CNL+Cytarabine.
We initially utilized the immune-compromised NRG mice engrafted with MOLM-13 cells expressing luciferase. Mice were engrafted, treated with the various drug combinations, and disease burden measured by live animal luminescence and Kaplan-Meier curve. […] C1498 cells are a de novo AML cell line from a C57-blkJ mouse. […] Given this, no Venetoclax groups were included. C57-blkJ mice were injected with C1498 AML cells transduced to express luciferase.

Mcl-1 = assay: Western blot of treated MOLM-14 cells; assay type: cell-based; settings: MOLM-14, 24 hours
Description: After centrifugation for 15 minutes at 13-14000×g at 10° C. supernatants were mixed with one-third of a volume of NUPAGE™ LDS 4× Sample Buffer (Thermo Fisher Scientific) containing 5% 2-mercaptoethanol. Protein samples were prepared by heating at 37° C. for 10 min after the addition of denaturing sample buffer. […] Primary and secondary antibodies were to diluted in 0.05% TBS/Tween-20 containing 0.05% Casein Blocker. Protein bands were visualized using a commercially available chemiluminescence kit (Thermo Fisher Scientific) or by infrared laser scanner using ChemiXX6 G:box imager (Syngene, Frederick, Md., United States of America).

MOLM-14 = assay: MTS cell viability assay; assay type: cell-based; settings: MOLM-14, ceramides for 24 hours, with CNL
Description: FIG. 4. Ceramide chain length altered biological and biophysical responses. MOLM-14 cells were treated with the indicated ceramides for 24 hours and viability was assessed by MTS.
MTS Cell Viability Assay: Cytotoxicity of nanoliposomal ceramide in AML cells was measured by plating 15,000 cells/well into 96-well plates followed by growth for 24 hours in a humidified 37° C. cell culture incubator in the presence of ghost liposomes, CNL or other drugs for 24 hours in 10% serum medium. After 24 h, MTS/PMS mixture was added and adsorption was read at 560 nm using Bio-Tek plate reader.
Cell viability MTS assays were performed in three AML cells lines: OCI-AML2, KG-1, AND MOLM-14 to determine their sensitivities to co-treatment with CNL, Ara-C, and Venetoclax. Table 1 summarized these cell lines, their sources, and the known driver mutations that are present in the cell lines. The cells lines were treated with concentrations that had been determined to be less than the EC50 so any synergistic or additive effects could be observed.

AML cells = settings: recent studies by others; cited from earlier work

## Nc1ccn([C@@H]2O[C@H](CO)[C@@H](O)[C@@H]2O)c(=O)n1 [AraC, cytarabine]
XIAP
  XIAP expression: not
Survivin
  Survivin expression levels: increased expression levels
Ceramide levels; single agent
  ceramide levels: significantly elevated
Ceramide levels; with co-treatment of CNL
  ceramide levels: raise ceramide levels
C1498 AML cells; C1498-bearing C57BL/6J mice, CNL 31.2 mg/kg, Cytarabine 75 mg/kg, treated 7 days
  median survival time: 41 days
C1498 AML cells; C1498 model, single agent
  survival: moderate increase in survival
Mcl-1
  Mcl-1 expression: not

## CCCCCCCCCCCCC/C=C/[C@@H](O)[C@H](CO)NC(=O)CCCCCCCCCCCCCCC [C16 ceramide]
MOLM-14
  potentiation of CNL-induced cell death: potentiated

## CCCCCCCCCCCCC/C=C/[C@@H](O)[C@H](CO)NC(=O)CCCCCCCCCCCCCCCCCCCCCCC [C24 ceramide]
MOLM-14
  potentiation of CNL-induced cell death: not

## CCCCCCCCc1ccc(CCC(N)(CO)CO)cc1 [FTY720]
AML cells
  apoptosis / death of AML cells: rapidly induced ceramide-mediated apoptosis

Source: patent US20220362177A1, “CERAMIDE RATIOS AS PREDICTIVE AND THERAPEUTIC BIOMARKERS FOR LEUKEMIAS” (University of Virginia Patent Foundation, priority 2019, published 2022)
